The text below walks through data of article PMC12919657 (Results in chemistry, 2025).

SMILES strings stand for the structures.

The data set can be described thus: pKa determination. In kind it is physicochemical. The settings on record: methanol / 1 N HCl solution.

For `O=C(CCCN1CCC(O)(c2ccc(Cl)cc2)CC1)c1ccc(F)cc1` [Haloperidol], the pKa was 8.22 ± 0.09.

In general, pKa refers to the negative logarithm of the acid dissociation constant. A higher pKa goes with a group that holds its proton tightly.
